# Data: ChEMBL document CHEMBL1201862, “PubChem BioAssay data set” (2004)
# The source made the active and inactive calls.
# What was measured:
# Cysteine protease ATG4B = target: T1, Cysteine protease ATG4B (Homo sapiens, UniProt Q9Y4P1); type: functional;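 also: Fluorescence-based dose-response confirmation assay measuring inhibition of ATG4B activity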
# T1 sequence (Q9Y4P1 whole entry): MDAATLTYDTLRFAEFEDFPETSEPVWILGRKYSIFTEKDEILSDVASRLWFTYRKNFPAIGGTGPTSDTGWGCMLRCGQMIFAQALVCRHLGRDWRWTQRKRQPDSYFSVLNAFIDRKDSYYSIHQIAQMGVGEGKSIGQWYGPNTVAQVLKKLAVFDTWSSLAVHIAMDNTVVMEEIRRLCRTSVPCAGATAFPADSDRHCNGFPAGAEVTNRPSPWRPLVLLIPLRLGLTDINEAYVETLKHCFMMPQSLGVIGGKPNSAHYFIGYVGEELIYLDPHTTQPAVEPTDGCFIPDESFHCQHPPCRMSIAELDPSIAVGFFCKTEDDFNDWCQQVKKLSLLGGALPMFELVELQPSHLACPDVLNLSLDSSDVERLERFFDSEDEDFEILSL
# Phospholipase A2 = Phospholipase A2 (Homo sapiens, UniProt P04054); type: functional;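 also: confirmatory dose-response counterscreen on phospholipase A2, testing hits that came from an ultra-high-throughput screen for ATG4B inhibitors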
# Streptococcus = test: Group A Streptococcus viability loss, dose response, counter-screen for streptokinase expression inhibitor project, luminescence, BacTiterGlo (AID 1915); type: functional, organism-based;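 also: potency for reduction of bacterial viability or growth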
# [1] = target: T2, Carboxy-terminal domain RNA polymerase II polypeptide A small phosphatase 1 (Homo sapiens, UniProt Q9GZU7); test: inhibitors of CTDSP1, concentration-response testing, biochemical assay, absorbance-based, actives from ultra-high-throughput screening (AID 540297); type: functional
# T2 sequence (Q9GZU7 whole entry): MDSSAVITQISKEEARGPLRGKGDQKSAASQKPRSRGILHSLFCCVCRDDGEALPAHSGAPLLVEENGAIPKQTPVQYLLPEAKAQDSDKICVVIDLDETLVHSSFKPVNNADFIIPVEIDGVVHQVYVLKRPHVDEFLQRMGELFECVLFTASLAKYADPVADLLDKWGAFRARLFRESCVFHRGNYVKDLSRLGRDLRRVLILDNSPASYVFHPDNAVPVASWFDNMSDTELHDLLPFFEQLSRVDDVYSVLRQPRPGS
# Streptokinase A = target: T3, Streptokinase A (Streptococcus pyogenes serotype M1, UniProt P10520); test: S. pyogenes streptokinase expression inhibitors, potency, dose response, plasminogen activation absorbance, OD405 (AID 1914); type: functional, Streptococcus pyogenes M1 GAS;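 also: secreted streptokinase activity via plasminogen activation per viability signal from cell pellet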
# T3 sequence (P10520 whole entry): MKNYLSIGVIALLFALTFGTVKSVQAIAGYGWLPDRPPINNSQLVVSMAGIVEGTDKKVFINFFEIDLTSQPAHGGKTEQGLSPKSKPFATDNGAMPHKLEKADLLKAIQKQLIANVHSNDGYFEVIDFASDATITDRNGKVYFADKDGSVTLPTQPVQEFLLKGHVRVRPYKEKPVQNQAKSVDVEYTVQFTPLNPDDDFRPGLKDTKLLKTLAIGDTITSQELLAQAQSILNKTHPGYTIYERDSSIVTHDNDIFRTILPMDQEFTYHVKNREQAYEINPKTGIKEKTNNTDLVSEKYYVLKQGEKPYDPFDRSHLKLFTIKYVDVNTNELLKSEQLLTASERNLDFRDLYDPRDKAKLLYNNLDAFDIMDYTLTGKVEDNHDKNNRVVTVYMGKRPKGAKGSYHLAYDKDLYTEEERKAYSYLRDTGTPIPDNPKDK
# [2] = tested on: Streptococcus sp. 'group A'; test: growth inhibition of control SK(-) GAS strain, dose response, counter-screen for streptokinase expression inhibitor project, luminescence, kanamycin, BacTiterGlo, confirmation (AID 1900); type: functional, organism-based
# [3] = inhibitors of HIV Env-driven cell fusion, dose response, cherry-pick (AID 652057); type: functional, cell-based
# [4] = inhibitors of clade B AD8 Env fusion, dose response, cell-based, cherry-pick (AID 652062); type: functional;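 also: luciferase signal from cell-cell fusion driven by HIV-1 clade B AD8 Env; potency is for inhibitors of fusion seen as a drop in luminescence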
# [5] = off-target signal loss in HeLa-CEM21 co-culture – HeLa F-luc CTL cells, cherry-picked, counter-screen for HIV-1 Env fusion inhibitor project, dose response (AID 652040); type: functional, cell-based;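 also: potency for signal decrease marking cytotoxic or nonspecific inhibition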
# [6] = ZM109 Env clade C HIV-1 fusion inhibitors, dose response, HeLa effector, CEM target cells, luciferase, cherry-pick (AID 652058); type: functional, cell-based
# Paired box protein Pax-8 = Paired box protein Pax-8 (Homo sapiens, UniProt Q06710); test: inhibitors of PAX8-driven TPO luciferase reporter, dose response, RMG-I cells, cherry-pick (AID 687027); type: functional, cell-based;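 also: luciferase reporter driven by Pax8 target thyroperoxidase promoter measured by SteadyGlo luminescence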
# [7] = cytotoxicity in OVCAR8 ovarian cancer cells, dose response, PAX8 project, cell-based, plate reader, dry powder samples (AID 743197); type: functional; settings: OVCAR-8
# [8] = cytotoxicity toward NIH3T3 fibroblasts, dose response, counter-screen, cell-based, ATP luminescence, mouse fibroblasts (AID 2010); type: functional;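 also: cells exposed to compound for about 90 hours before reading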
# [9] = inhibitors of intracellular T. cruzi replication, confirmation, NIH3T3 host cells, beta-gal luminescence (AID 2044); type: functional, cell-based;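 also: intracellular parasites grown in NIH/3T3 mouse fibroblasts as host cells; luminescent beta-galactosidase reporter signal from transgenic T. cruzi replicating inside host cells; inhibitors lower the luminescence signal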
# [10] = target: Heat shock protein HSP 90-alpha (Homo sapiens, UniProt P07900); type: functional, organism-based
# Genome polyprotein = Genome polyprotein (dengue virus type 2, UniProt P29990); test: Dengue-2 NS5 methyltransferase inhibitors, primary screen, biochemical, confirmation dose response (AID 588689); type: functional
# cells [11] = type: functional
# [12] = target: T4, Oxysterols receptor LXR-beta (Homo sapiens, UniProt P55055); type: functional, cell-based;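 also: Cell-based luminescence dose-response assay of agonist activity at LXR, run as a confirmatory counterscreen to a daf-12 agonist screen; HEK293 cells with Gal4-LXR fusion and GAL4-driven luciferase reporter; agonist potency from rising luciferase signal of a Gal4-LXR reporter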
# T4 sequence (P55055 whole entry): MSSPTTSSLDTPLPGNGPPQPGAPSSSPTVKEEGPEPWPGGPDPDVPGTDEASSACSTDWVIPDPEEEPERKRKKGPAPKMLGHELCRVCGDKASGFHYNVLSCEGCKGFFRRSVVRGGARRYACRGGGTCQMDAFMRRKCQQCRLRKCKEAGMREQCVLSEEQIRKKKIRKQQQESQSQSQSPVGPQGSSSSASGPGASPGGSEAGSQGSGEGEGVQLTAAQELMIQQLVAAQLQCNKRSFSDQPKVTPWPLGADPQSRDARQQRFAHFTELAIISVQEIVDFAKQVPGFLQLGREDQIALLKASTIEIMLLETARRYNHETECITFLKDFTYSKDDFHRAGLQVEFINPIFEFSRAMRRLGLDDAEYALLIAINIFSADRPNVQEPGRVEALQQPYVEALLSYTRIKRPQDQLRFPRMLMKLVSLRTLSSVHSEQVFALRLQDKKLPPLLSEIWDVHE
# cells [13] = test: cells
# Sequence of Genome polyprotein (P29990 2492-3391 limits assumed): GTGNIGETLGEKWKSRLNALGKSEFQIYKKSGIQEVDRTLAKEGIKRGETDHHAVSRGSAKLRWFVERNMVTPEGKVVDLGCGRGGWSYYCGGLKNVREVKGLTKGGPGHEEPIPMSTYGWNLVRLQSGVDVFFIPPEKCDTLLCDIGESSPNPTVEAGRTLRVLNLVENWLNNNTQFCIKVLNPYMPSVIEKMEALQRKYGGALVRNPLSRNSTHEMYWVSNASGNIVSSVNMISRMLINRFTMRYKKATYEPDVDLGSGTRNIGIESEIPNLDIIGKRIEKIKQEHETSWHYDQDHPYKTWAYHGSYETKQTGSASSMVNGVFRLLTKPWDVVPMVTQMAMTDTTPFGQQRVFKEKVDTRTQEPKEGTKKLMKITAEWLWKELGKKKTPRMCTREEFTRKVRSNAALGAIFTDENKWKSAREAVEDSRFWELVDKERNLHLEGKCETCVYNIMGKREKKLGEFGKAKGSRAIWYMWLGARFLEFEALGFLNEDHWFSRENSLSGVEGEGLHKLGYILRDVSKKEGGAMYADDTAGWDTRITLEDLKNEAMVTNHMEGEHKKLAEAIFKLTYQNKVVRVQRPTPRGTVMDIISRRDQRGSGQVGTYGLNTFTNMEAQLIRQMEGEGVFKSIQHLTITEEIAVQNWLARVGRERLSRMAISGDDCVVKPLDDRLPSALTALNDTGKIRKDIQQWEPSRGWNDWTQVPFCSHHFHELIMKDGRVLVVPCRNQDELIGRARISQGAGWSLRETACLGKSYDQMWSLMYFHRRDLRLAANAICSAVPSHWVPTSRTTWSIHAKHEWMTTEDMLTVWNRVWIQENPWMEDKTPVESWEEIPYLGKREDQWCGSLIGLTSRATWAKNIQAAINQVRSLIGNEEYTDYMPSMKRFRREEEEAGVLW
# Sequence of Phospholipase A2 (P04054 whole entry): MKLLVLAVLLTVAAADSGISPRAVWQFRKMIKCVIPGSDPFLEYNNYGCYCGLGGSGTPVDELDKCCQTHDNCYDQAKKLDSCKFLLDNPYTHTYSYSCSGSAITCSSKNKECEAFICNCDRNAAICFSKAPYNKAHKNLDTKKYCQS
# Sequence of Paired box protein Pax-8 (Q06710 whole entry): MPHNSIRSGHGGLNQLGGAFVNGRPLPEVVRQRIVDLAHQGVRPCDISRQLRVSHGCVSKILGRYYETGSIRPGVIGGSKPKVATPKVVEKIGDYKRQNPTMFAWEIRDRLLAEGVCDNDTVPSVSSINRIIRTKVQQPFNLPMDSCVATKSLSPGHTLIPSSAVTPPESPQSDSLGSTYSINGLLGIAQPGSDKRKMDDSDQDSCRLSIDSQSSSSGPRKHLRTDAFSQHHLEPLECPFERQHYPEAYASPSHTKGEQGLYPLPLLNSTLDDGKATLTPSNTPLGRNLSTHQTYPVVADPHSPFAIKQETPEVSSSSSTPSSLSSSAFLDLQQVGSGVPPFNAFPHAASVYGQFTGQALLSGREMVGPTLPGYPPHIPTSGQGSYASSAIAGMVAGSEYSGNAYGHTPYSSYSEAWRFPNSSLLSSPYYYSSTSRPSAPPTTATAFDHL
structure (smiles),measurement,setting,value
CCOC(=O)c1c(NC=C2C(=O)CC(C)(C)CC2=O)sc(C)c1C,IC50,Cysteine protease ATG4B,5.45 µM (active)
same,IC50,Phospholipase A2,5.12 µM (active)
CCC[N+]1(CC#CC2(O)CCCCC2)CCOCC1,EC50,Streptococcus,> 150 µM (not active)
same,IC50,[1],5.44 µM (active)
same,EC50,Streptokinase A,> 150 µM (not active)
same,EC50,[2],> 150 µM (not active)
COc1ccccc1[C@@H]1C(c2ccc(F)cc2)=NN(c2ccccc2)[C@H]1C(=O)N1CCOC1=O,AC50,[3],3.59 µM (active)
same,AC50,[4],12.6 µM (active)
same,AC50,[5],7.61 µM (active)
same,AC50,[6],7.77 µM (active)
C[C@H](CO)N1C[C@H](C)[C@H](CN(C)Cc2ccc(-c3ccccc3)cc2)Oc2ccc(NS(=O)(=O)c3ccc(F)cc3)cc2CC1=O,AC50,Paired box protein Pax-8,27.1 µM (active)
same,AC50,[7],> 70 µM (inactive)
COc1ccc(OC)c(N2C(=O)NC(=O)/C(=C/c3ccc([N+](=O)[O-])s3)C2=O)c1,EC50,[8],> 60 µM (inconclusive)
same,EC50,[9],2.1 µM (active)
same,AC50,[10],3.06 µM (active)
same,IC50,Genome polyprotein,18.8 µM (active)
same,IC50,cells [11],23.7 µM (active)
O=C(COc1ccccc1Cl)Nc1ccc(Cl)cn1,EC50,[12],> 67.5 µM (inactive)
same,EC50,cells [13],> 67.5 µM (inactive)
Cc1cccc(N2C(=O)N3[C@H](c4ccc(Br)cc4)[C@@H]4C(=O)N(C(C)(C)C)C(=O)[C@@H]4[C@]3(C)C2=O)c1,AC50,[3],0.48 µM (active)
same,AC50,[4],1.69 µM (active)
same,AC50,[5],0.936 µM (active)
same,AC50,[6],0.746 µM (active)
C=CCN([C@@H](CC(C)C)C(=O)OC)S(=O)(=O)N(CC=C)[C@@H](CC(C)C)C(=O)OC,AC50,[3],6.72 µM (active)
same,AC50,[4],25.9 µM (active)
same,AC50,[5],21 µM (active)
same,AC50,[6],24.7 µM (active)
C/C(=N\Nc1nc2ccccc2s1)c1cccs1,EC50,[12],> 67.5 µM (inactive)
same,EC50,cells [13],> 67.5 µM (inactive)
Cc1sc2nc(C(C)C)nc(SCC(=O)NCc3ccco3)c2c1C,IC50,Cysteine protease ATG4B,11.1 µM (active)
same,IC50,Phospholipase A2,5.93 µM (active)
O=c1nc2n(c(O)c1C(c1ccc(O)cc1)c1c(O)nc3n(c1=O)CCS3)CCS2 (configuration not stated),IC50,Genome polyprotein,48.5 µM (active)
C[C@@H]1CCCCO[C@H](CN(C)Cc2ccc3c(c2)OCO3)[C@@H](C)CN([C@@H](C)CO)C(=O)c2cc(NS(=O)(=O)c3ccc(Cl)cc3)ccc2O1,AC50,Paired box protein Pax-8,9.45 µM (active)
same,AC50,[7],> 70 µM (inactive)
COc1cc(NS(=O)(=O)c2ccc(Nc3nc(-c4cccc([N+](=O)[O-])c4)cs3)cc2)nc(OC)n1,IC50,Cysteine protease ATG4B,11.3 µM (active)
same,IC50,Phospholipase A2,9.57 µM (active)
CCOc1cc(/C=C2/SC(=S)N(CC(=O)O)C2=O)ccc1OC(=O)c1cccs1,IC50,Genome polyprotein,56.3 µM (active)
